Tests used:
[1] = test system: L1210 murine leukemia resistant to cisplatin (L1210:DDP); assay: Antitumor activity against cisplatin-resistant L1210 murine leukemia (L1210/DDP) in CDF1 mice; assay type: in vivo; conditions: cisplatin-resistant subline, day 1; for L1210/DDP Dose producing the maximum % T/C: administered ip; for L1210/DDP Max. % T/C: done concomitantly with L1210 test, ip, active if ≥125
Method: (§1) All of the metal complexes were tested for antitumor activity against P388 murine leukemia. Selected compounds were also tested for antitumor activity against L1210 murine leukemia and a subline of L1210 murine leukemia resistant to cisplatin (L1210:DDP). CDF1 mice weighing 20 grams were inoculated intraperitoneally with 10^6 ascites cells of P388 leukemia, L1210 leukemia or L1210:DDP leukemia, depending on the test system being used. Drug administration was initiated the day following tumor implantation in all test systems. The complexes were administered at various dose levels by intraperitoneal injection. Groups of four to six mice were used for each dose level and they were treated with the complex on day one only. A group of ten saline treated control mice was included in each experiment. Cisplatin treated groups were included as a positive control in each experiment. The mice were weighed before treatment and again on day five or six and the average weight change used as a measure of toxicity. The animals were observed daily for mortality and the experiments terminated after 30 days. Antitumor activity was determined based on % T/C, which is the ratio of the median survival time of the drug treated group to the median survival time of the saline treated control group times 100. The saline treated mice usually have a median survival time of 9 days with P388 leukemia and 7 days with L1210 and L1210/DDP leukemia. A complex is considered active if it produces a % T/C of ≥125.
(§2) Tables II and IIa contain summaries of the evaluations of the compounds for antitumor activity against the murine leukemias. Listed for each compound is the maximum % T/C achieved and the dose producing that effect.
(§3) For the in vitro cytotoxicity studies the drugs were dissolved or suspended, depending on their solubility, in 0.9% NaCl solution. Occasionally, 5% dextrose in water or 10% DMSO in 0.9% NaCl was used. The compounds were prepared for in vivo treatment by dissolving or suspending, with the addition of minimal amounts of Tween 80, in water.

[2] = test system: HCT-116 human colon carcinoma cells; assay: In vitro cytotoxicity, HCT-116 human colon carcinoma cells (72 h, crystal violet); assay type: cell-based; conditions: HCT-116 cells
Method: (§4) Logarithmically growing cells were harvested by mild trypsinization and 4000 cells were added to each well of a 96-well microtiter plate (Costar). […] The cells were then treated with a metal complex or cisplatin and incubated for 72 hours. The plates were inverted and shaken to remove media, drug and detached cells. […] The fixative was removed, the plates air dried, stained with 0.0075% crystal violet for 15 minutes, washed twice and air dried. The stain was solubilized with 0.2 ml of 0.1 M AcOH/EtOH (1:1) and optical densities determined using a Dynatech MR600 microtiter plate reader. […] The compounds were prepared for in vivo treatment by dissolving or suspending, with the addition of minimal amounts of Tween 80, in water.

[3] = test system: B16-F10 murine melanoma cells; assay: In vitro cytotoxicity, B16-F10 murine melanoma cells (72 h, crystal violet); assay type: cell-based
Method: as §4

P388 murine leukemia = assay: Antitumor activity against P388 murine leukemia in CDF1 mice; assay type: in vivo; conditions: 1 x on day 1; for P 388 Dose producing the maximum % T/C: administered ip; for P 388 Maximum % T/C: median survival time treated/saline control x 100, ip, active if ≥125
Method: as §1, §2, §3

L1210 murine leukemia = assay: Antitumor activity against L1210 murine leukemia in CDF1 mice; assay type: in vivo; conditions: day 1; for L1210 Dose producing the maximum % T/C: administered ip; for L1210 Max. % T/C: median survival time treated/saline control x 100, ip, active if ≥125
Method: as §1, §2, §3

B16 Melanoma = assay: Antitumor activity against B16 Melanoma in BDF1 mice; assay type: in vivo; conditions: for B 16 Dose producing the maximum % T/C: administered ip, days 1-9; for B 16 Maximum % T/C: median survival time vs saline control, ip, daily days 1-9, active if ≥125, figures separated by slashes are from separate experiments
Method: Several of the metal complexes were additionally evaluated for antitumor activity against B16 Melanoma. BDF1 mice, 10 per group, were inoculated intraperitoneally with 0.5 ml of a 10 percent (w:v) brei of B16 Melanoma. Intraperitoneal treatment with the metal complexes was initiated one day after implant and continued daily for a total of nine days. From 4 to 5 doses were tested for each compound under study. A saline treated control group and cisplatin treated groups were included in each experiment. The mice were observed daily for survivors and the experiments terminated after 60 days. […] The median survival time of the drug treated mice relative to that of the controls (% T/C) was used as a measure of antitumor activity.
Occasionally, 5% dextrose in water or 10% DMSO in 0.9% NaCl was used. The compounds were prepared for in vivo treatment by dissolving or suspending, with the addition of minimal amounts of Tween 80, in water.

[4] = Struck et al., J. Med. Chem., 9, 414 (1966); cited from earlier work

## O=[N+]([O-])[O-].O=[N+]([O-])[O-].[Ni+2].c1ccc(P(CCP(c2ccccc2)c2ccccc2)c2ccccc2)cc1.c1ccc(P(CCP(c2ccccc2)c2ccccc2)c2ccccc2)cc1 [TNO 354, Bis[1,2-bis(diphenylphosphino)ethane]nickel(II) dinitrate]
[1]
  L1210/DDP Dose producing the maximum % T/C: 80 mg/kg
  L1210/DDP Max. % T/C: 138 % T/C
[2]
  IC 50 (concentration which inhibits cell growth by 50%), HCT 116: 1.3 µg/mL
[3]
  IC 50 (concentration which inhibits cell growth by 50%), B 16: 4.1 µg/mL
P388 murine leukemia
  P 388 Dose producing the maximum % T/C: 50 mg/kg
  P 388 Maximum % T/C: 139 % T/C
L1210 murine leukemia
  L1210 Dose producing the maximum % T/C: 80 mg/kg
  L1210 Max. % T/C: 100 % T/C
B16 Melanoma
  B 16 Dose producing the maximum % T/C: 30 mg/kg/inj.
  B 16 Maximum % T/C: 183 % T/C

## O=[N+]([O-])[O-].O=[N+]([O-])[O-].[Co+2].c1ccc(P(CCP(c2ccccc2)c2ccccc2)c2ccccc2)cc1.c1ccc(P(CCP(c2ccccc2)c2ccccc2)c2ccccc2)cc1 [TNO 347, Bis[1,2-bis(diphenylphosphino)ethane]nitrato cobalt(II) nitrate]
[1]
  L1210/DDP Dose producing the maximum % T/C: 50 mg/kg
  L1210/DDP Max. % T/C: 150 % T/C
[2]
  IC 50 (concentration which inhibits cell growth by 50%), HCT 116: > 500 µg/mL
[3]
  IC 50 (concentration which inhibits cell growth by 50%), B 16: 413 µg/mL
P388 murine leukemia
  P 388 Dose producing the maximum % T/C: 100 mg/kg
  P 388 Maximum % T/C: 161 % T/C
L1210 murine leukemia
  L1210 Dose producing the maximum % T/C: 100 mg/kg
  L1210 Max. % T/C: 100 % T/C
B16 Melanoma
  B 16 Dose producing the maximum % T/C: 20 mg/kg/inj.
  B 16 Maximum % T/C: 171 % T/C

## c1ccc(P(CCP(c2ccccc2)c2ccccc2)c2ccccc2)cc1 [1,2-bis-(diphenylphosphino)ethane, 1,2-bis(diphenylphosphino)ethane]
[4]
  cytotoxic activity: cytotoxic activity

From patent US4831170A, “Pharmaceutically active phospino-hydrocarbon-group VIII-metal complexes, antitumor compositions containing these complexes, and a process for preparing said compounds or antitumor compositions” (priority 1985, dated 1989)
